{"source": "patent US6319929A", "about": "“Suksdorfin analogs, compositions thereof, and methods for making and using thereof” (priority 1998, dated 2001)", "key": {"[1]": {"tested_on": "chronically HIV-1 infected U1 cells", "assay": "Virus expression from chronically HIV-1 infected monocytic cell line U1 (p24 antigen ELISA)", "type": "cell-based", "settings": "for effect on virus expression of PMA-stimulated U1 cells (in words): with PMA; for induction of virus expression from U1 cells (in words): without PMA", "protocol": "(§1) Effects of suksdorfin analogs on Chronically HIV-1 infected cells. The experimental design is as follows: The phorbol ester, PMA (10^-8 M) and various concentrations of suksdorfin were either added or not added to both the chronically HIV-1 infected T cell line (ACH-2) and to the chronically HIV-1 infected monocytic cell line (U1). Cell-free supernatant was collected 72 hours post culture for p24 antigen ELISA.\nCompound 16 was also assayed on ACH-2 (chronically HIV-1 infected T cell line). U1 cells are also chronically HIV-1 infected cells but they are from the monocytic cell line, U937. The data presented in Table 8 indicates the following points:\n(§2) Chronically HIV-1 infected cell lines. HIV-1 chronically infected T cell line, ACH-2^12, and HIV-1 chronically infected promonocytic cell line, U1 13, were continuously maintained in RPMI 1640 with 10% fetal calf serum (FCS). For experiments, the cell lines were only used in the […] of growth. Cells (0.5×10^6 cells/well) and either various concentrations of suksdorfin or medium alone were added to 24-well plates in the presence or absence of PMA (10^-8 M). After 72 hours at 37° C. and 5% CO2, an aliquot of the cell-free supernatants were collected and analyzed for p24 antigen by ELISA (see below for details of p24 antigen ELISA)."}, "[2]": {"tested_on": "HIV-1 replication in H9 cells", "assay": "HIV-1 replication inhibition in acutely infected H9 lymphocytes (p24 antigen ELISA)", "type": "cell-based, HIV-1 (IIIB strain)", "settings": "for anti-HIV activity in H9 cells (in words): acutely infected H9 cells", "in_short": "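H9 T cells exposed to HIV-1 IIIB (0.01-0.1 TCID50/cell) for 1 h at 37° C, washed, then grown with compound for 3-4 days at 37° C. Toxicity taken from cell counts of uninfected cultures and virus from p24 ELISA of supernatants. EC50 and IC50 were read graphically from concentration versus percent inhibition plots.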"}, "[3]": {"tested_on": "chronically HIV-1 infected ACH-2 cells", "assay": "Virus expression from chronically HIV-1 infected T cell line ACH-2 (p24 antigen ELISA)", "type": "cell-based", "settings": "for effect on virus expression of PMA-stimulated ACH-2 cells (in words): with PMA; for induction of virus expression from ACH-2 cells (in words): without PMA", "protocol": "as §1\nResults (Table 11) from adding compound 16 to the chronically HIV-infected T cell line, ACH-2, according to methods in above examples. ACH-2 are a chronically HIV-1 infected T cell line. It was derived from A3.01 cells which is a subclone of the CEM cell line. The data below indicates the following points:\nas §2"}}, "note": "Like-named read-outs stand apart in the source and are kept apart here."}
{"compound": "CC(=O)O[C@@H]1[C@H](OC(=O)CC(C)C)c2c(ccc3ccc(=O)oc23)OC1(C)C", "note": "[Suksdorfin, suksdorfin]", "values": [{"measurement": "P24", "setting": "[1]; U1, +PMA, 0.16 μg/ml", "result": "6,611 pg/ml"}, {"measurement": "P24", "setting": "[1]; U1, +PMA, 0.8 μg/ml", "result": "7,360 pg/ml"}, {"measurement": "P24", "setting": "[1]; U1, +PMA, 4 μg/ml", "result": "9,728 pg/ml"}, {"measurement": "P24", "setting": "[1]; U1, +PMA, 20 μg/ml", "result": "5,096 pg/ml"}, {"measurement": "P24", "setting": "[1]; U1, -PMA, 0.16 μg/ml", "result": 0, "unit": "pg/mL"}, {"measurement": "P24", "setting": "[1]; U1, -PMA, 0.8 μg/ml", "result": 0, "unit": "pg/mL"}, {"measurement": "P24", "setting": "[1]; U1, -PMA, 4 μg/ml", "result": 0, "unit": "pg/mL"}, {"measurement": "P24", "setting": "[1]; U1, -PMA, 20 μg/ml", "result": 0, "unit": "pg/mL"}, {"measurement": "effect on virus expression of PMA-stimulated U1 cells (in words)", "setting": "[1]", "result": "no significant alteration in the level of virus expression"}, {"measurement": "effect on virus expression of PMA-stimulated U1 cells (in words)", "setting": "[1]; listed as 1", "result": "no alteration in the level of virus expression"}, {"measurement": "induction of virus expression from U1 cells (in words)", "setting": "[1]", "result": "The answer is no"}, {"measurement": "induction of virus expression from U1 cells (in words)", "setting": "[1]; listed as 1", "result": "no increase in the induction of virus expression"}, {"measurement": "EC50", "setting": "[2]; Human immunodeficiency virus 1, H9, Table 17, acutely infected H9 lymphocytes, read-out: EC50", "result": 1300, "unit": "nM"}, {"measurement": "EC50", "setting": "[2]; Human immunodeficiency virus 1, H9, acutely infected H9 cells, concentration which inhibits viral replication by 50%, Inactive = No suppression of HIV-1 replication in H9 cells, read-out: EC50", "result": 1300, "unit": "nM"}, {"measurement": "EC50", "setting": "[2]; Human immunodeficiency virus 1, H9, earlier value, read-out: EC50 (value before increase)", "result": "0.5 to 0.8", "unit": "µg/mL"}, {"measurement": "IC50", "setting": "[2]; Human immunodeficiency virus 1, Table 14, concentration which inhibits viral replication by 50%, Inactive = No suppression of HIV-1 replication in H9 cells, read-out: IC50 (μM)^b", "result": 1.3, "unit": "µM"}, {"measurement": "Therapeutic Index", "setting": "[2]; IC50 for cell growth inhibition divided by EC50 for HIV inhibition, H9", "result": "> 40"}, {"measurement": "Therapeutic Index", "setting": "[2]; Table 14", "result": "> 40.0"}, {"measurement": "Therapeutic Index", "setting": "[2]; Table 17, H9", "result": "> 40"}, {"measurement": "anti-HIV activity in H9 cells (in words)", "setting": "[2]", "result": "suppressed virus replication"}, {"measurement": "anti-HIV activity in H9 cells (in words)", "setting": "[2]; listed as 1", "result": "potent anti-HIV-1 activity at nontoxic concentrations"}, {"measurement": "P24", "setting": "[3]; ACH-2, +PMA, 0.16 μg/ml", "result": "50,775 pg/ml"}, {"measurement": "P24", "setting": "[3]; ACH-2, +PMA, 0.8 μg/ml", "result": "55,910 pg/ml"}, {"measurement": "P24", "setting": "[3]; ACH-2, +PMA, 4 μg/ml", "result": "61,235 pg/ml"}, {"measurement": "P24", "setting": "[3]; ACH-2, +PMA, 20 μg/ml", "result": "49,914 pg/ml"}, {"measurement": "P24", "setting": "[3]; ACH-2, -PMA, 0.16 μg/ml", "result": "3,688 pg/ml"}, {"measurement": "P24", "setting": "[3]; ACH-2, -PMA, 0.8 μg/ml", "result": "3,821 pg/ml"}, {"measurement": "P24", "setting": "[3]; ACH-2, -PMA, 4 μg/ml", "result": "4,723 pg/ml"}, {"measurement": "P24", "setting": "[3]; ACH-2, -PMA, 20 μg/ml", "result": "4,541 pg/ml"}, {"measurement": "effect on virus expression of PMA-stimulated ACH-2 cells (in words)", "setting": "[3]", "result": "no significant alteration in the level of virus expression"}, {"measurement": "effect on virus expression of PMA-stimulated ACH-2 cells (in words)", "setting": "[3]; listed as 1", "result": "no alteration in the level of virus expression"}, {"measurement": "induction of virus expression from ACH-2 cells (in words)", "setting": "[3]", "result": "The answer is no"}, {"measurement": "induction of virus expression from ACH-2 cells (in words)", "setting": "[3]; listed as 1", "result": "no increase in the induction of virus expression"}]}
